Experimental findings from patent publication US9062028B2, “Bicyclic nitrogen containing heteroaryl TGR5 receptor modulators” (Bristol-Myers Squibb Company, priority 2011, dated 2015) are described below.

Molecules are shown by their SMILES. Structures can show the parent of a compound that is named as a salt.

This test concerns the target T1, recombinant human TGR5 (Homo sapiens, UniProt Q8TDU6).
T1 construct: expressed in transfected cells
T1 sequence (Q8TDU6 1-330): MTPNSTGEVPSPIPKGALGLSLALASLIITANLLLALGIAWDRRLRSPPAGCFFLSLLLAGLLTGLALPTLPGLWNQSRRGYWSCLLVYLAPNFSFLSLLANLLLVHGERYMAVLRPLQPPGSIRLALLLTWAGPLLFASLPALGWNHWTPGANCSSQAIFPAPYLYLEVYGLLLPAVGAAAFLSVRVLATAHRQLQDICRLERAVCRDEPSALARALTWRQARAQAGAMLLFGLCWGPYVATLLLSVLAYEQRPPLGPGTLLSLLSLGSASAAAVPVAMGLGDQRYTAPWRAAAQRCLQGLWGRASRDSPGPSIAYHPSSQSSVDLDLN
Nature of the test: cAMP assay (cAMP accumulation, HTRF) in CHOK1 cells stably expressing TGR5. Type of test: cell-based. The note with it: CHOK1 cells stably expressing human TGR5, 30 minutes at RT, 1% DMSO. Here is the method:
The in vitro modulation of recombinant human TGR5 was determined as follows.
A human TGR5 expression construct of human TGR5 was integrated into the genome of a CHOK1 cell line (Invitrogen). Once a stable CHOK1 cell line was generated, the cells were incubated for 5-10 minutes in culture medium consisting of F-12 (Invitrogen#11765-047) supplemented with 10% fetal bovine serum.
On the day of the cAMP accumulation assay, cells stably expressing the […] TGR5 construct were centrifuged at 1000 rpm for 5 minutes. The medium was aspirated and the cells were resuspended in 5 mL of assay buffer (phosphate-buffered saline with Ca^2+ and Mg^2+, Invitrogen#14040). The cells were counted using 1:2 dilution and then adjusted to 0.4-0.5×10^6 cells/mL in assay buffer, if necessary. Isobutylmethylxanthine (IBMX, Sigma#I5879) was added via a 1:5000 dilution to make a 0.1 mM final concentration and then 10 μL of the media were transferred to each well of a 384 well poly-D-lysine coated solid white plate (BD #35-6661) pre-dotted with 100 nL of with the desired concentration of compound added from a concentrated stock dissolved in dimethyl sulfoxide (DMSO) to give a final concentration of 1% DMSO in the assay. The plates were covered and incubated for 30 minutes at RT. cAMP accumulation was measured using the CisBio homogeneous time resolved fluorescence (HTRF) assay kit (#62AM2PEC) following the manufacturer's protocol. Briefly, 5 μl each of the cAMP-HTRF fluorescence detection reagents were added to each well, and the samples were incubated for at least one hour at room temperature. Fluorescence was excited at 320 nm and measured at 665 and 620 nm using the Envision instrument (Perkin Elmer), the fluorescence ratio of 665/620 was calculated and converted to nanomolar concentrations of cAMP in each well by interpolation from a cAMP standard curve. The concentration-response curves and EC50 values were calculated with a four parameter logistic curve fit equation utilizing Excel/XLfit software (Microsoft and IDBS). The EC50 value was calculated as the concentration of agonist which increased the cAMP concentration to a value halfway between the baseline and the maximum.
For orientation: cAMP levels reflect the balance of adenylyl cyclase and phosphodiesterase activity.
The EC50 is the concentration needed to bring the measured effect to its halfway point. As to `Cc1c(Cl)cccc1OCCCC(=O)N1CC2CC2c2c(-c3cnn(Cc4cccc(C(=O)NCS(=O)(=O)O)c4)c3)cccc21` (stereo not drawn) [Example 222, (3-((4-(3-(4-(3-Chloro-2-methylphenoxy)butanoyl)-1a,2,3,7b-tetrahydro-1H-cyclopropa[c]quinolin-7-yl)-1H-pyrazol-1-yl)methyl)benzamido)methanesulfonic acid], the concentration for a half-maximal effect (EC50) worked out at 0.055 µM. For the compound `Cc1c(Cl)cccc1OCCCC(=O)N1C[C@@H]2C[C@@H]2c2c(-c3cnn(Cc4cccc(N5C(=O)[C@H](CCC[N+](C)(C)C)N(C)C5=O)c4)c3)cccc21` [Example 352, 3-((S)-1-(3-((4-((1aR,7bS)-3-(4-(3-Chloro-2-methylphenoxy)butanoyl)-1a,2,3,7b-tetrahydro-1H-cyclopropa[c]quinolin-7-yl)-1H-pyrazol-1-yl)methyl)phenyl)-3-methyl-2,5-dioxoimidazolidin-4-yl)-N,N,N-trimethylpropan-1-aminium, TFA salt], the EC50 is 0.196 µM.

As to `Cc1c(Cl)cccc1OCCOC(=O)N1CCSc2c(-c3cnn(Cc4cccc(C(=O)NCCC(=O)O)c4Cl)c3)cccc21` [Example 628, 3-(2-Chloro-3-((4-(4-((2-(3-chloro-2-methylphenoxy)ethoxy)carbonyl)-3,4-dihydro-2H-benzo[b][1,4]thiazin-8-yl)-1H-pyrazol-1-yl)methyl)benzamido)propanoic acid], the EC50 turned out to be 0.195 µM. The result for `Cc1cccc(OCCCC(=O)N2CCCc3c(-c4cccc(COC(=O)NCCC(=O)O)c4)cccc32)c1C` [Example 43, 3-((3-(1-(4-(2,3-Dimethylphenoxy)butanoyl)-1,2,3,4-tetrahydroquinolin-5-yl)benzyloxy)carbonylamino)propanoic acid] reads 0.611 µM; that for `Cc1cccc(OCCCC(=O)N2C[C@@H]3C[C@@H]3c3c(-c4cnn(Cc5cccc(C(=O)NC[C@@H](N)C(=O)O)c5)c4)cccc32)c1C` [Example 887, (R)-2-Amino-3-(3-((4-((1aR,7bS )-3-(4-(2,3-dimethylphenoxy)butanoyl)-1a,2,3,7b-tetrahydro-1H-cyclopropa[c]quinolin-7-yl)-1H-pyrazol-1-yl)methyl)benzamido)propanoic acid], 0.184 µM; that for `Cc1cccc(OCCCC(=O)N2CCCc3c(-c4cccc(COC(=O)N[C@@H](Cc5ccc(OP(=O)(O)O)cc5)C(=O)O)c4)cccc32)c1C` [Example 324, (S)-2-((3-(1-(4-(2,3-Dimethylphenoxy)butanoyl)-1,2,3,4-tetrahydroquinolin-5-yl)benzyloxy)carbonylamino)-3-(4-(phosphonooxy)phenyl)propanoic acid], 3.39 µM.

On to `Cc1cccc(OCCCC(=O)N2CCCc3c(-c4cnn(Cc5cccc(-c6nnn(CC(=O)O)n6)c5)c4)cccc32)c1C` [Example 430, 2-(5-(3-((4-(1-(4-(2,3-Dimethylphenoxy)butanoyl)-1,2,3,4-tetrahydroquinolin-5-yl)-1H-pyrazol-1-yl)methyl)phenyl)-2H-tetrazol-2-yl) acetic acid], for which the EC50 was determined as 0.197 µM. As for `Cc1cccc(OCCCC(=O)N2CCCc3c(-c4cnn(CCNC(=O)CC(=O)O)c4)cccc32)c1C` [Example 110J, 3-(2-(4-(1-(4-(2,3-Dimethylphenoxy)butanoyl)-1,2,3,4-tetrahydroquinolin-5-yl)-1H-pyrazol-1-yl)ethylamino)-3-oxopropanoic acid], the concentration giving a half-maximal response (EC50) is 3.3 µM. The result for `Cc1cccc(OCCCC(=O)N2C[C@H]3C[C@H]3c3c(-c4cnn(Cc5cccc(NC(=O)NCCC(=O)O)c5)c4)cccc32)c1C` (single isomer, unassigned) [Example 249] reads 0.66 µM; that for `Cc1cccc(OCCCC(=O)N2CCSc3c(-c4cnn(Cc5c(F)cc(C(=O)NCCC(=O)O)cc5Cl)c4)cccc32)c1C` [Example 575, 3-(3-Chloro-4-((4-(4-(4-(2,3-dimethylphenoxy)butanoyl)-3,4-dihydro-2H-benzo[b][1,4]thiazin-8-yl)-1H-pyrazol-1-yl)methyl)-5-fluorobenzamido) propanoic acid], 0.049 µM; that for `Cc1cccc(OCCCC(=O)N2CCCc3c(-c4cnn(CCNC(=O)C5(C(=O)NCCS(=O)(=O)O)CC5)c4)cccc32)c1C` [Example 110K, 2-(1-(2-(4-(1-(4-(2,3-Dimethylphenoxy)butanoyl)-1,2,3,4-tetrahydroquinolin-5-yl)-1H-pyrazol-1-yl)ethylcarbamoyl)cyclopropanecarboxamido) ethanesulfonic acid], 5 µM. Then `Cc1cccc(OCCCC(=O)N2CCCc3c(-c4cnn(Cc5cccc(N(C)C(=O)N(C)CC[N+](C)(C)C)c5)c4)cccc32)c1C` [Example 472, 2-(3-(3-((4-(1-(4-(2,3-Dimethylphenoxy)butanoyl)-1,2,3,4-tetrahydroquinolin-5-yl)-1H-pyrazol-1-yl)methyl)phenyl)-1,3-dimethylureido)-N,N,N-trimethylethanaminium, TFA salt], with 1.84 µM. As to `Cc1cccc(OCCCC(=O)N2C[C@@H]3C[C@@H]3c3c(-c4cnn(Cc5cccc(C(=O)NCC(=O)O)c5)c4)cccc32)c1C` [Example 878, 2-(3-((4-((1aR,7bS)-3-(4-(2,3-Dimethylphenoxy)butanoyl)-1a,2,3,7b-tetrahydro-1H-cyclopropa[c]quinolin-7-yl)-1H-pyrazol-1-yl)methyl)benzamido)acetic acid], the EC50 worked out at 0.042 µM. Then `Cc1c(Cl)cccc1OCCCC(=O)N1CCSc2c(-c3cnn(Cc4cccc(C(=O)O)c4)c3)cccc21` [Example 354, 3-((4-(4-(4-(3-Chloro-2-methylphenoxy)butanoyl)-3,4-dihydro-2H-benzo[b] [1,4]thiazin-8-yl)-1H-pyrazol-1-yl)methyl)benzoic acid], with 0.04 µM; and `Cc1cccc(OCCCC(=O)N2CCCOc3c(-c4cnn(Cc5ccc(C(=O)NCCC(=O)O)cc5)c4)cccc32)c1C` [Example 142, 3-(4-((4-(5-(4-(2,3-Dimethylphenoxy)butanoyl)-2,3,4,5-tetrahydrobenzo[b][1,4]oxazepin-9-yl)-1H-pyrazol-1-yl)methyl)benzamido)propanoic acid], with 0.647 µM; and `Cc1cccc(OCCCC(=O)N2CCCc3c(-c4cnn(CCNC(=O)NCC(=O)O)c4)cccc32)c1C` [Example 110G, 2-(3-(2-(4-(1-(4-(2,3-Dimethylphenoxy)butanoyl)-1,2,3,4-tetrahydroquinolin-5-yl)-1H-pyrazol-1-yl)ethyl)ureido)acetic acid], with 3.14 µM. `Cc1cccc(OCCCC(=O)N(C)c2cccc(-c3cnn(Cc4cccc(C(=O)O)c4)c3)c2)c1C` [Example 339, 3-((4-(3-(4-(2,3-Dimethylphenoxy)-N-methylbutanamido)phenyl)-1H-pyrazol-1-yl)methyl) benzoic acid]: the EC50 was found to be 2.58 µM. Turning to `COC(=O)[C@@H](CCC(=O)O)NC(=O)c1ccc(Cl)c(Cn2cc(-c3cccc4c3[C@H]3C[C@H]3CN4C(=O)OCCOc3cccc(Cl)c3C)cn2)c1` [Example 672, (R)-4-(4-Chloro-3-((4-((1aR,7bS)-3-((2-(3-chloro-2-methylphenoxy)ethoxy)carbonyl)-1a,2,3,7b-tetrahydro-1H-cyclopropa[c]quinolin-7-yl)-1H-pyrazol-1-yl)methyl)benzamido)-5-methoxy-5-oxopentanoic acid], the EC50 worked out at 0.043 µM.
